From paper PMC3471904 (PLoS ONE, 2012)
Values after ≈ are worked out from the molar mass of the structure shown. Values joined by “and” are separate entries in the source; they are usually repeats but may differ in a detail not shown here. Equal values may be shown once. “Also recorded” adds a separate entry of the source. Read-outs that look alike come from different tables or passages of the source.

What was measured:
F. novicida = system: F. novicida; parameters: species or system Galleria mellonella; conditions: in vivo
F. novicida glpT mutant = assay type: cell-based
[1] = system: intracellular F. novicida in RAW264.7 mouse macrophages; assay type: cell-based
[2] = system: mouse macrophage RAW264.7 cells
[3] = system: intracellular F. novicida glpT mutant in A549 cells; assay type: cell-based
Wild-type F. novicida = assay: microbe, parasite or virus in culture; assay type: cell-based; conditions: for inhibition at 1000 µM: read-out: Inhibition of growth
[4] = system: intracellular F. novicida in A549 human alveolar epithelial cells; assay: microbe, parasite or virus in culture; assay type: cell-based
[5] = system: human lung epithelial A549 cells
[6] = mouse, in vivo; cited from earlier work
F. tularensis LVS DXR = F. tularensis LVS DXR (Francisella tularensis subsp. holarctica, UniProt Q2A4P9); assay: biochemical
[7] = system: M. tuberculosis whole cells; conditions: cited from earlier work
DXR of E. coli = conditions: cited from earlier work
DXR from M. tuberculosis = conditions: read-out: half maximal activity against DXR; cited from earlier work
[8] = Francisella tularensis, A549, 20 h, read-out: Inhibition of intracellular growth

Sequence of F. tularensis LVS DXR (Q2A4P9 whole entry, looked up): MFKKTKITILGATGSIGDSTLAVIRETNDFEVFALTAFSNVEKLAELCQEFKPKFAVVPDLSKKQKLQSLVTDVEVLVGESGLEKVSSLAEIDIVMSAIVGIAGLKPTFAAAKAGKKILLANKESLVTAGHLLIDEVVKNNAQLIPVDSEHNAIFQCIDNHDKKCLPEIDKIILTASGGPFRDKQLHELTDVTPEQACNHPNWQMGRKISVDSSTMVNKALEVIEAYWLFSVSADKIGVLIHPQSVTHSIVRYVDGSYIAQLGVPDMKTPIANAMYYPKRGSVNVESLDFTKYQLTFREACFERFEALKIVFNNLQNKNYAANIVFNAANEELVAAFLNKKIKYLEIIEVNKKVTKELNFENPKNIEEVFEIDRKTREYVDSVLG

O=C(O)c1cn(C2CC2)c2cc(N3CCNCC3)c(F)cc2c1=O [Ciprofloxacin]
Mean time to death (F. novicida; 20 mg/kg): 103 h

CC(=O)N(O)CCCP(=O)(OC(C)OC(=O)c1ccccc1)OC(C)OC(=O)c1ccccc1 (stereo not drawn) [Compound 1]
MIC (F. novicida glpT mutant): 200 µM (≈ 98.7 µg/mL) | Percent inhibition of growth (OD600 treated vs untreated) (F. novicida glpT mutant): 100% | Intracellular F. novicida remaining [1]: 1.68±0.28 ×10^5 CFU/well and 0.92±0.18 ×10^5 CFU/well | Cytotoxicity by LDH release [2]: did not induce cytotoxicity | Effect on intracellular glpT mutant replication [3]: susceptible; also recorded: significant effect | Intracellular glpT mutant remaining [3]: 22.32±2.23 ×10^3 CFU/well | EC50 (Wild-type F. novicida): 45.2 ± 3.7 µM | Percent inhibition of growth (OD600 treated vs untreated) (Wild-type F. novicida): 100% | EC50 (Wild-type F. novicida; Francisella tularensis): 45 µM | MIC (Wild-type F. novicida; Francisella tularensis, 48 h): 202 µM (≈ 99.7 µg/mL) | inhibition at 250 µM [4, 8]: 97 ± 0.8% | inhibition at 400 µM [4, 8]: 99 ± 0.7% | Cytotoxicity by LDH release [5]: did not induce cytotoxicity | Mean time to death (F. novicida; 30 mg/kg): 93 h

CCCCCCOP(=O)(CCCN(O)C(C)=O)OCCCCCC [Compound 2]
MIC (F. novicida glpT mutant): >1000 µM | Percent inhibition of growth (OD600 treated vs untreated) (F. novicida glpT mutant): 11±7% | Percent inhibition of growth (OD600 treated vs untreated) (Wild-type F. novicida): 27±14% | EC50 (Wild-type F. novicida; Francisella tularensis): 481 ± 44 µM | MIC (Wild-type F. novicida; Francisella tularensis): 1100 µM (≈ 402 µg/mL) | MIC (Wild-type F. novicida; Francisella tularensis, 48 h): 1090 µM (≈ 400 µg/mL)

CCOP(=O)(CCCN(O)C(C)=O)OCC [Compound 3]
Inhibition of F. novicida (result in words) (Wild-type F. novicida): did not effectively inhibit; also recorded: ineffective

CC(=O)N(O)CCCP(=O)(O)O [FR900098]
MIC (F. novicida glpT mutant): >1000 µM | Percent inhibition of growth (OD600 treated vs untreated) (F. novicida glpT mutant): 55±5% | Cytotoxicity by LDH release [2]: did not induce cytotoxicity | Well tolerated dose [6]: up to 300 mg/kg | Effect on intracellular glpT mutant replication [3]: not affected; also recorded: no effect | IC50 (F. tularensis LVS DXR): 0.23 µM | Effect on whole cells [7]: no effect on whole cells | EC50 (Wild-type F. novicida): 23.2 ± 1.2 µM | Percent inhibition of growth (OD600 treated vs untreated) (Wild-type F. novicida): 97.1±0.8% | EC50 (Wild-type F. novicida; Francisella tularensis): 23 µM | MIC (Wild-type F. novicida; Francisella tularensis, 48 h): 254 µM (≈ 50.1 µg/mL) | inhibition at 1000 µM (Wild-type F. novicida; Francisella tularensis): 100% | Inhibition of intracellular growth [4]: 85±10% | Intracellular F. novicida remaining [4]: 0.56±0.26 ×10^3 CFU/well and 0.59±0.40 ×10^3 CFU/well | inhibition at 250 µM [4, 8]: 86 ± 6% | Cytotoxicity by LDH release [5]: did not induce cytotoxicity | Mean time to death (F. novicida; 30 mg/kg): 84 h | IC50 (DXR of E. coli; read-out: IC50 against the DXR of E. coli): 0.062 µM

O=CN(O)CCCP(=O)(O)O [Fosmidomycin]
Inhibition of growth (F. novicida glpT mutant): not able to inhibit F. novicida glpT growth at all; also recorded: completely resistant | MIC (F. novicida glpT mutant): >1000 µM | Percent inhibition of growth (OD600 treated vs untreated) (F. novicida glpT mutant): did not inhibit the growth of the glpT mutant at all | Intracellular F. novicida remaining [1]: 0.93±0.20 ×10^5 CFU/well | Cytotoxicity by LDH release [2]: did not induce cytotoxicity | Well tolerated dose [6]: up to 300 mg/kg | Effect on intracellular glpT mutant replication [3]: not affected; also recorded: no effect | Effect on whole cells [7]: no effect on whole cells | IC50 (DXR from M. tuberculosis): 0.31 µM | EC50 (Wild-type F. novicida): 3.6 ± 0.2 µM | Percent inhibition of growth (OD600 treated vs untreated) (Wild-type F. novicida): 99.6±0.2% | EC50 (Wild-type F. novicida; Francisella tularensis): 3.5 µM | MIC (Wild-type F. novicida; Francisella tularensis, 48 h): 136 µM (≈ 24.9 µg/mL) | inhibition at 1000 µM (Wild-type F. novicida; Francisella tularensis): 100% | Intracellular F. novicida remaining [4]: 0.07±0.03 ×10^3 CFU/well | Reduction of intracellular bacteria [4]: 2 log | inhibition at 250 µM [4, 8]: 98 ± 0.7% | Cytotoxicity by LDH release [5]: did not induce cytotoxicity | Mean time to death (F. novicida; 30 mg/kg): 102 h | IC50 (DXR of E. coli; read-out: half maximal activity against DXR): 0.035 µM
